Source: patent US20220313651A1, “INHIBITORS OF ZIKA VIRUS INFECTION” (priority 2019, published 2022)

Key:
[1] = test system: DENV-2 human strain V594; test: DENV-2 infection in Ifnar1-/- mice, viral titers by flow cytometry; format: in vivo; details: 20 mg/kg i.p. 12 h before and 6, 24, 48 h after infection; DENV-2 V594 2×10^6 PFU; 3 dpi; vs gossypol and DMSO
Description: FIG. 11A is a schematic diagram of experimental procedures. […] FIG. 11B depicts representative images of DENV titers in brain, kidney, heart, and sera analyzed by flow cytometry at 3 dpi. C6/36 cells with or without DENV-2 infection were used as positive and negative controls, respectively. The percentage of infected cells to the total number of cells is shown in each figure. FIG. 11C depicts the detection of DENV titers in challenged mouse tissues and sera at 3 dpi. […] The data are presented as mean±s.e.m of duplicate wells (n=2). The experiments were repeated twice with similar results.
ST087010 was evaluated for protection against DENV-2 infection in susceptible Ifnar1^−/− mice. […] Three days after infection, sera and tissues, including brain, kidney, and heart, were collected, and detected for DENV infection using a flow cytometry assay (as described below). […] DENV titers in tissues or sera were determined from ˜20 mg of tissue, or 25 μl of sera, and used for subsequent flow cytometry analysis.
A flow cytometry assay was carried out to analyze DENV-2 titers in the infected mouse tissue supernatants and sera collected above. […] Viral titers (infectious units/ml or infectious units/g) were calculated using the formula: ((% of infected cells)×(total number of cells)×(dilution factor))/(amount of inoculum added to cells). […]

[2] = test system: ZIKV human strain R103451; test: Protection of Ifnar1-/- mice from lethal ZIKV challenge (survival, weight); format: in vivo; details: 20 mg/kg i.p. 12 h before and 6, 24, 48 h after infection; ZIKV R103451 200 PFU/mouse; 21 days
Description: FIG. 8A is a schematic diagram of experimental procedures. […] The treated mice were infected with ZIKV human strain R103451 (200 plaque forming unit (PFU)/mouse), followed by evaluation of survival rate (FIG. 8B) or weight changes (FIG. 8C) for 21 days. The data are expressed as mean±s.e.m. of mice in each group (n=6). In a separate experiment, ST087010 or gossypol-treated mice were infected with ZIKV human strain PAN2016 (200, PFU/mouse). Five days post-infection (dpi), viral titers were detected in tissues by plaque assay (FIG. 8D), and ZIKV or caspase-3 signals were measured in eye (FIG. 8E) and testis ([…]) tissues by immunofluorescence staining. The data are expressed as mean±s.e.m. of mice in each group (n=5), and significant differences among different groups are shown as *, **, and ***. The detection limit is 25 PFU/g. ZIKV and caspase-3 (in FIG. 8E-F) were stained with anti-ZIKV and anti-active caspase-3 antibodies, respectively. Nuclei were stained with DAPI (40,6-diamidino-2-phenylindole). Representative images of immunofluorescence staining are shown. Magnification, 63×, and scale bar, 10 μm.
Adult male (3-4 or 7-8-week-old) and pregnant female (8-12-week-old, E12-14) Ifnar1^−/− mice were used in the study. […]
ST087010 was evaluated for protection against ZIKV infection in ZIKV-susceptible Ifnar1^−/− mice. […]

Cc1cc2c(C(C)C)c(O)c(O)c(/C=N/n3c(=O)[nH][nH]c3=O)c2c(O)c1-c1c(C)cc2c(C(C)C)c(O)c(O)c(/C=N/n3c(=O)[nH][nH]c3=O)c2c1O [ST087010]
DENV-2 viral titer (number of infected cells) in brain, kidney, heart and sera [1]: significantly reduced number of infected cells
Survival (mice protected from death) [2]: 50%
Weight changes [2]: slight weight loss during 6-12 dpi
